Laboratory results taken from PubChem BioAssay AID1963447 (Molecular Pharmacology Branch, DTP, NCI, 2024).
One block for each molecule: values may come before it.

System: 885512-296-R-J2-PDC complex spheroid growth, % test/control
Experiment: Anticancer human tumor 885512-296-R-J2-PDC patient-derived breast carcinoma cell line growth inhibition [Asc]
Settings: for IC50: curve of first compound; for viability, T/C: stronger effect = lower value
Outline: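 Concentration series start at each agent's clinical Cmax, or at 10 microM when none is established, and drop in half-log steps; agents are applied alone or together to complex spheroids built with HUVEC and hMSC.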

[1] = second compound 0.01 µM, first compound 0.00316 µM
[2] = second compound 0.01 µM, first compound 0.01 µM
[3] = second compound 0.01 µM, first compound 0.0316 µM
[4] = second compound 0.01 µM, first compound 0.1 µM
[5] = second compound 0.0316 µM, first compound 0.00316 µM
[6] = second compound 0.0316 µM, first compound 0.01 µM
[7] = second compound 0.0316 µM, first compound 0.0316 µM
[8] = second compound 0.0316 µM, first compound 0.1 µM
[9] = second compound 0.1 µM, first compound 0.00316 µM
[10] = second compound 0.1 µM, first compound 0.01 µM
[11] = second compound 0.1 µM, first compound 0.0316 µM
[12] = second compound 0.1 µM, first compound 0.1 µM
[13] = second compound 0.316 µM, first compound 0.00316 µM
[14] = second compound 0.316 µM, first compound 0.01 µM
[15] = second compound 0.316 µM, first compound 0.0316 µM
[16] = second compound 0.316 µM, first compound 0.1 µM
[17] = second compound 1 µM, first compound 0.00316 µM
[18] = second compound 1 µM, first compound 0.01 µM
[19] = second compound 1 µM, first compound 0.0316 µM
[20] = second compound 1 µM, first compound 0.1 µM
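Note: spheroids exposed to compounds for seven days.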
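Throughout, for viability, T/C: 100% = DMSO vehicle control wells.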

- IC50 (second compound 0.01 µM): 0.0488 µM
- IC50 (second compound 0.0316 µM): 0.0487 µM
- IC50 (second compound 0.1 µM): 0.049 µM
- IC50 (second compound 0.316 µM): 0.0499 µM
- IC50 (second compound 1 µM): 0.0489 µM
SMILES: NC(=O)C(=Cn1cnc(-c2cc(C(F)(F)F)cc(C(F)(F)F)c2)n1)c1cncnc1 + CNC(C)C(=O)NC1CN(S(=O)(=O)c2cccc(S(=O)(=O)N3CCC4CCC(C(=O)NC(c5ccccc5)c5ccccc5)N4C(=O)C(NC(=O)C(C)NC)C3)c2)CCC2CCC(C(=O)NC(c3ccccc3)c3ccccc3)N2C1=O
- viability, T/C (second compound 0.01 µM, first compound 0.000949 µM): 96.4%
- viability, T/C (second compound 0.01 µM, first compound 0.003 µM): 95.6%
- viability, T/C (second compound 0.01 µM, first compound 0.00949 µM): 92.8%
- viability, T/C (second compound 0.01 µM, first compound 0.03 µM): 80.9%
- viability, T/C (second compound 0.01 µM, first compound 0.0949 µM): 7.83%
- viability, T/C (second compound 0.01 µM, first compound 0.3 µM): 1.03%
- viability, T/C (second compound 0.0316 µM, first compound 0.000949 µM): 96.1%
- viability, T/C (second compound 0.0316 µM, first compound 0.003 µM): 99%
- viability, T/C (second compound 0.0316 µM, first compound 0.00949 µM): 102%
- viability, T/C (second compound 0.0316 µM, first compound 0.03 µM): 80.4%
- viability, T/C (second compound 0.0316 µM, first compound 0.0949 µM): 8.3%
- viability, T/C (second compound 0.0316 µM, first compound 0.3 µM): 0.82%
- viability, T/C (second compound 0.1 µM, first compound 0.000949 µM): 102%
- viability, T/C (second compound 0.1 µM, first compound 0.003 µM): 103%
- viability, T/C (second compound 0.1 µM, first compound 0.00949 µM): 110%
- viability, T/C (second compound 0.1 µM, first compound 0.03 µM): 81.8%
- viability, T/C (second compound 0.1 µM, first compound 0.0949 µM): 7.31%
- viability, T/C (second compound 0.1 µM, first compound 0.3 µM): 1.06%
- viability, T/C (second compound 0.316 µM, first compound 0.000949 µM): 106%
- viability, T/C (second compound 0.316 µM, first compound 0.003 µM): 110%
- viability, T/C (second compound 0.316 µM, first compound 0.00949 µM): 107%
- viability, T/C (second compound 0.316 µM, first compound 0.03 µM): 83.7%
- viability, T/C (second compound 0.316 µM, first compound 0.0949 µM): 7.6%
- viability, T/C (second compound 0.316 µM, first compound 0.3 µM): 0.59%
- viability, T/C (second compound 1 µM, first compound 0.000949 µM): 101%
- viability, T/C (second compound 1 µM, first compound 0.003 µM): 108%
- viability, T/C (second compound 1 µM, first compound 0.00949 µM): 110%
- viability, T/C (second compound 1 µM, first compound 0.03 µM): 81.8%
- viability, T/C (second compound 1 µM, first compound 0.0949 µM): 6.87%
- viability, T/C (second compound 1 µM, first compound 0.3 µM): 0.55%

- IC50 (second compound 0.01 µM): > 0.1 µM
- IC50 (second compound 0.0316 µM): > 0.1 µM
- IC50 (second compound 0.1 µM): > 0.1 µM
- IC50 (second compound 0.316 µM): > 0.1 µM
- IC50 (second compound 1 µM): > 0.1 µM
SMILES: NC1CCC(NC2CC2c2ccccc2)CC1 (stereo not given) + CNC(C)C(=O)NC1CN(S(=O)(=O)c2cccc(S(=O)(=O)N3CCC4CCC(C(=O)NC(c5ccccc5)c5ccccc5)N4C(=O)C(NC(=O)C(C)NC)C3)c2)CCC2CCC(C(=O)NC(c3ccccc3)c3ccccc3)N2C1=O
- viability, T/C (second compound 0.01 µM, first compound 0.000316 µM): 114%
- viability, T/C (second compound 0.01 µM, first compound 0.001 µM): 116%
- viability, T/C [1]: 111%
- viability, T/C [2]: 105%
- viability, T/C [3]: 111%
- viability, T/C [4]: 113%
- viability, T/C (second compound 0.0316 µM, first compound 0.000316 µM): 107%
- viability, T/C (second compound 0.0316 µM, first compound 0.001 µM): 112%
- viability, T/C [5]: 107%
- viability, T/C [6]: 113%
- viability, T/C [7]: 110%
- viability, T/C [8]: 110%
- viability, T/C (second compound 0.1 µM, first compound 0.000316 µM): 107%
- viability, T/C (second compound 0.1 µM, first compound 0.001 µM): 91%
- viability, T/C [9]: 109%
- viability, T/C [10]: 106%
- viability, T/C [11]: 104%
- viability, T/C [12]: 111%
- viability, T/C (second compound 0.316 µM, first compound 0.000316 µM): 108%
- viability, T/C (second compound 0.316 µM, first compound 0.001 µM): 110%
- viability, T/C [13]: 112%
- viability, T/C [14]: 105%
- viability, T/C [15]: 108%
- viability, T/C [16]: 110%
- viability, T/C (second compound 1 µM, first compound 0.000316 µM): 111%
- viability, T/C (second compound 1 µM, first compound 0.001 µM): 104%
- viability, T/C [17]: 110%
- viability, T/C [18]: 98.6%
- viability, T/C [19]: 105%
- viability, T/C [20]: 109%

- IC50 (second compound 0.01 µM): 0.094 µM
- IC50 (second compound 0.0316 µM): 0.107 µM
- IC50 (second compound 0.1 µM): 0.112 µM
- IC50 (second compound 0.316 µM): 0.126 µM
- IC50 (second compound 1 µM): 0.159 µM
SMILES: O=C(c1ccc(F)c(F)c1Nc1ccc(I)cc1F)N1CC(O)([C@@H]2CCCCN2)C1 + CNC(C)C(=O)NC1CN(S(=O)(=O)c2cccc(S(=O)(=O)N3CCC4CCC(C(=O)NC(c5ccccc5)c5ccccc5)N4C(=O)C(NC(=O)C(C)NC)C3)c2)CCC2CCC(C(=O)NC(c3ccccc3)c3ccccc3)N2C1=O
- viability, T/C [1]: 92.1%
- viability, T/C [2]: 80.5%
- viability, T/C [3]: 59%
- viability, T/C [4]: 50.2%
- viability, T/C (second compound 0.01 µM, first compound 0.316 µM): 37.5%
- viability, T/C (second compound 0.01 µM, first compound 1 µM): 15.1%
- viability, T/C [5]: 98.3%
- viability, T/C [6]: 84.3%
- viability, T/C [7]: 78%
- viability, T/C [8]: 48%
- viability, T/C (second compound 0.0316 µM, first compound 0.316 µM): 32%
- viability, T/C (second compound 0.0316 µM, first compound 1 µM): 16.6%
- viability, T/C [9]: 99.5%
- viability, T/C [10]: 95.8%
- viability, T/C [11]: 78.6%
- viability, T/C [12]: 47.8%
- viability, T/C (second compound 0.1 µM, first compound 0.316 µM): 35.1%
- viability, T/C (second compound 0.1 µM, first compound 1 µM): 15.9%
- viability, T/C [13]: 102%
- viability, T/C [14]: 99.5%
- viability, T/C [15]: 82.5%
- viability, T/C [16]: 53.8%
- viability, T/C (second compound 0.316 µM, first compound 0.316 µM): 31.4%
- viability, T/C (second compound 0.316 µM, first compound 1 µM): 16.5%
- viability, T/C [17]: 103%
- viability, T/C [18]: 96.2%
- viability, T/C [19]: 89.7%
- viability, T/C [20]: 60.9%
- viability, T/C (second compound 1 µM, first compound 0.316 µM): 32.8%
- viability, T/C (second compound 1 µM, first compound 1 µM): 16.8%
